# Paper PMC6704644 (Journal of Experimental & Clinical Cancer Research : CR, 2019)
# Target: T1, mPGES-1 (microsomal prostaglandin E synthase-1) (Homo sapiens, UniProt O14684)
# T1 construct: gene PTGES
# T1 sequence (O14684 1-152): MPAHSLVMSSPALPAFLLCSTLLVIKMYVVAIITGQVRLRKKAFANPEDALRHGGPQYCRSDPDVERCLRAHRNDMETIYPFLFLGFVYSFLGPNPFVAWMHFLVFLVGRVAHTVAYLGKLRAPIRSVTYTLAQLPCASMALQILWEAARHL
# Assay: CETSA in U87 cell lysates (temperature- and dose-dependent), plus enzyme activity inhibition IC50
# Type: cell-based
smiles,measurement,value
"O=C(/C=C/c1ccc(O)cc1)c1ccc(O)cc1O [ISL, isoliquiritigenin]",IC50,17.4 µM
